Where two headings read alike, the source gives them in different places.

The text below walks through data of patent US12611386B2, “Extended release pharmaceutical formulation” (Douglas Pharmaceuticals Ltd., priority 2020, dated 2026).

The subject of data set [1] is TRD patients. Particulars: Singh et al. 2016, cited from earlier work.
For data set [2] the following is noted: injected by any route of administration (e.g. Loo 2016); cited from earlier work.
Data set [3] deals with patients with treatment-resistant depression and/or treatment-resistant anxiety (TRD/TRA). The data set is described as follows: Study ZPS-603 Cohort 4: mood ratings (HAMA, FQ, MADRS), open label multiple ascending dose. It counts as in vivo, human. Particulars: injected drug in earlier treatment (FIG. 7). The protocol:
The objective of Cohort 4 was to evaluate efficacy, safety, PK and PD of an extended release ketamine oral formulation in patients with treatment-resistant depression and/or treatment-resistant anxiety (TRD/TRA). […] The design was an open label multiple ascending dose study. The initial dose was 60 mg, and could be escalated by an additional 60 mg 12 hourly, based on assessment of mood symptoms, to a maximum dose of 240 mg, with a total of 7 doses given 12 hourly between 0 and 72 hours. Endpoints included safety, tolerability, ketamine and norketamine PK, and PD (mood ratings including the Fear Questionnaire (FQ; Marks 1979), HAMA and MADRS, and dissociative symptom rating scale scores).

Consider `CNC1(c2ccccc2Cl)CCCCC1=O` (stereo not shown) [IV ketamine, 2-(2-chlorophenyl)-2-(methylamino)cyclohexan-1-one], for which the TRD patients remitted is 23.1% in data set [1] (0.5 mg/kg IV thrice weekly) and 37.5% in data set [1] (0.5 mg/kg IV twice weekly for 15 days). For the same compound, in data set [2], the “duration of marked dissociative symptoms after dosing” value is “up to 60 minutes”. For the same compound, the “onset of improvement of anxiety symptoms” value in data set [3] is 1 to 2 h.
